“And” between values parts separate entries of the source, which are not always exact repeats. Equal values may be shown once. Marks after values point to notes of the source that are not given here.
Columns and labels:
[1] = test system: H. glycines second-stage juveniles; assay: Microwell assay: previously hatched J2 immersed in compounds, activity and viability; conditions: for reduction in % viable J2 compared with the Tween control: Day 3 following water rinse; for % Active Day 1 / % Active Day 2: previously hatched J2 in aqueous solution; for viability at 0.1 %: Heterodera glycines, 72 h, read-out: % Viable Day 3 rinsed
Procedure: The isolate of H. glycines race 3, originally isolated in Maryland, was maintained on soybean (Glycine max cv. ‘Essex’). As previously described (Wen, Y., et al. Plant Disease, 103: 2191-2198 (2019)), the roots were gently rubbed in water to dislodge cysts and mature females. The egg suspensions were then poured through nested sieves (#20 over /#60; pore sizes 850 μm and 250 μm diam., respectively) into a 454 g/liter sucrose solution. After 15 min, the cysts and females and cysts that floated to the top were collected, rinsed in water, and crushed with a rubber stopper on a #60 sieve (250-μm diam. pore size) that was partially submerged in distilled water. The egg suspension was washed through nested #230 over #500 sieves (pore sizes 63 μm and 25-μm diam., respectively). The eggs were collected in distilled water, and J2 hatched as described above.
(§1) Compounds for the studies were purchased from three different companies: methyl benzoate, CAS Number 93-58-3, ≥99% purity; Tween 20, CAS Number: 9005-64-5; Tween 80, CAS Number: 9005-65-6; ethyl benzoate, CAS Number: 93-89-0, natural, ≥99% purity, FCC, FG; vinyl benzoate, CAS Number: 769-78-8, ≥99% purity; n-propyl benzoate, CAS Number: 2315-68-6, 99% purity; n-butyl benzoate, CAS Number: 136-60-7, 99% purity; benzyl benzoate, CAS Number: 120-51-4, natural, ≥99% purity, FCC, FG; methyl 2-methylbenzoate, CAS Number: 89-71-4, 99% purity; methyl 2-chlorobenzoate, CAS Number: 610-96-8, ≥98% purity; methyl 2-methoxybenzoate, CAS Number: 606-45-1, 99% purity and methyl 2-nitrobenzoate, CAS Number: 606-27-9, 98% purity were purchased from Sigma-Aldrich (St. Louis, Mo.). Compounds, iso-butyl benzoate, CAS Number 120-50-3, >98% purity; n-pentyl benzoate, CAS Number: 2049-96-9, ≥98% purity; and n-hexyl benzoate, CAS Number: 6789-88-4, ≥98% purity were purchased from Alfa Aesar (Tewksbury, Mass.). The compounds methyl 3-methoxybenzoate (methyl m-anisate), CAS Number: 5368-81-0; 97% and methyl 3-methylbenzoate (methyl m-toluate), CAS Number: 99-36-5, 97% purity were purchased from TCI America (Portland, Oreg.). All chemicals were used without further purification. Deionized water (DI) containing 1% emulsifier (v/v), Tween 20 and Tween 80, at 1:1 ratio was used to make different VOCs (volatile organic compounds) water solutions and also used as blank control.
(§2) For tests with individual compounds, the concentration of each compound was 0.1% before placement into wells; the final concentration in the wells was 0.095% after addition to eggs or J2 suspended in water. These are reported as 0.1% herein. An exception was Trial 2, M. incognita J2 activity and viability (Table 2): the final concentration was 0.1% after placement in wells. Low concentrations were selected for assays of combined compounds to determine if the combinations would increase nematotoxicity.
(§3) Laboratory assays were conducted in 96-well polystyrene plates following general procedures described in Wen et al. (2019). Each well received approximately 35 J2 (for previously hatched J2 assays) or 35 eggs that each contained either a first-stage juvenile (J1) or a J2. The plates were covered with plastic adhesive sealing film (Excel Scientific, Inc., Victorville Calif.) and then with the plate lids. Parafilm (Bemis, Neenah, Wis.) was used to seal the plates. The nematodes were then incubated at 26° C. […] Following the counts on Day 2, the treatments were removed and the J2 rinsed twice with SDW and incubated in the second rinse. […] Two trials were conducted for each assay.
Statistical analyses: The data were analyzed as either a general linear model using JMP or a generalized linear model for the best distribution to fit the residual using Proc Glimmix (Sas Institute). The assumptions of the model were checked. If not met, then appropriate statistical techniques were used so that data could met the assumptions of the models. In Sas, mean comparisons were done with Sidak adjusted p-values to hold the experiment-wise error at 0.05.

M. incognita eggs = assay: Microwell assay: eggs immersed in compounds, hatch and activity of hatched J2; assay type: in vivo, Meloidogyne incognita; conditions: 0.1%; for decrease in total hatch compared with the Tween control: Day 7; for % Active Day 2 / % Active Day 5 / % Active Day 7: J2 hatched from immersed eggs; for Hatch Day 2 / Hatch Day 5 / Hatch Day 7: hatched J2 per well, about 35 eggs per well; for decrease in % active J2 compared with the Tween control: J2 hatched from eggs, 7-day incubation
Procedure: (§4) All chemicals were used without further purification.
(§5) These are reported as 0.1% herein.
(§6) The nematodes were then incubated at 26° C. […] Two trials were conducted for each assay.
(§7) The assumptions of the model were checked.

Heterodera glycines eggs = assay: as above; assay type: in vivo; conditions: 0.1%; for % Active Day 2 / % Active Day 5 / % Active Day 7: J2 hatched from immersed eggs; for Hatch Day 2 / Hatch Day 5 / Hatch Day 7: hatched J2 per well, about 35 eggs per well; for pest or weed control at 0.1 %: Heterodera glycines, 168 h, read-out: egg hatch suppression compared with the Tween control
Procedure: as §4, §5, §6, §7

[2] = test system: M. incognita second-stage juveniles; assay: Microwell assay: previously hatched J2 immersed in compounds, activity and viability; conditions: for % Active Day 1 / % Active Day 2: 0.1%, previously hatched J2 in aqueous solution; for viability at 0.1 % / mortality at 0.1 %: Meloidogyne incognita, 72 h; for viability at 0.1 %: read-out: % Viable Day 3 rinsed; for mortality at 0.1 %: read-out: nonviable (killed) J2; for nonviable (killed) J2: in vivo
Procedure: Nematode cultures: As described in Meyer et al. (Meyer, S. L. F., et al., Nematropica, 46: 85-96 (2016)), M. incognita race 1 (originally isolated in Maryland) was maintained in a greenhouse (24° to 29° C.; natural and supplemental lighting combined for a 16-h daylength) on susceptible cayenne pepper (Capsicum annuum) TA-136′ plants. All greenhouse experiments described herein were conducted under the same conditions. Two to three months after pepper plant inoculation, egg masses were picked from roots. Eggs were separated by 5 min immersion in 0.6% sodium hypochlorite, followed by a rinse in sterile distilled water (SDW). To collect second-stage juveniles (J2) for microwell assays, the surface-sterilized eggs were placed in a hatching chamber (Spectra/Mesh Nylon Filter, openings 25-μm-diam.; Spectrum Laboratories Inc., Rancho Dominguez, Calif.) set in an autoclaved dish that was placed on a rotary shaker for 3 days at 35 rpm. For some M. incognita and H. glycines assays, 25 or […] kanamycin monosulfate (Phytotechnology Laboratories, Shawnee Mission, Kans.) was added to the hatching chamber to prevent growth of bacteria. The collected J2 were then rinsed with water to remove the kanamycin monosulfate.
as §1, §2, §3

| SMILES | reduction in % viable J2 compared with the Tween control ([1]; 0.1%) | % Active Day 1 ([1]; 0.1%) | % Active Day 2 ([1]; 0.1%) | viability at 0.1 % [1] | % Active Day 2 (M. incognita eggs) | % Active Day 5 (M. incognita eggs) | % Active Day 7 (M. incognita eggs) | Hatch Day 2 (M. incognita eggs) | Hatch Day 5 (M. incognita eggs) | Hatch Day 7 (M. incognita eggs) | % Active Day 2 (Heterodera glycines eggs) | % Active Day 5 (Heterodera glycines eggs) | % Active Day 7 (Heterodera glycines eggs) | Hatch Day 2 (Heterodera glycines eggs) | Hatch Day 5 (Heterodera glycines eggs) | Hatch Day 7 (Heterodera glycines eggs) | % Active Day 1 [2] | % Active Day 2 [2] | viability at 0.1 % [2] | mortality at 0.1 % [2] | further results |
| --- | --- | --- | --- | --- | --- | --- | --- | --- | --- | --- | --- | --- | --- | --- | --- | --- | --- | --- | --- | --- | --- |
| COC(=O)c1ccccc1Cl [M2CB, Methyl 2-chlorobenzoate] | 99% | 0.46 ^e % | 1.6 ^g % | 0.5% | 0 ^c % | 0 e % | 0 ^c % | 1.7 ^d | 1.7 ^e | 2.3 ^e | 0 ^e % | 6.4 ^de % | 0 ^d % | 5.4 ^cd | 5.8 ^cd | 5.5 ^cd | 0 ^f % | 0 ^d % | 0% | 100% | decrease in total hatch compared with the Tween control (M. incognita eggs): ~95%; inactive J2 that hatched from the eggs (Heterodera glycines eggs; by Day 7): 100%; pest or weed control at 0.1 % (Heterodera glycines eggs; Day 7): 64 to 80% |
| COC(=O)c1ccccc1C [M2MB, Methyl 2-methylbenzoate] | – | 50.4 ^c % | 52.7 ^bc % | 46.4% | 45.3 ^ab % | 11.8 ^d % | 17.4 ^b % | 4.3 ^cd | 6.6 ^bcd | 7.6 ^cd | 23.8 ^cd % | 24.3 ^cde % | 30.9 ^ab % | 6.6 ^bcd | 7.6 ^bcd | 7.4 ^bcd | 2.5 ^e % | 0 ^d % | 0% | 100% | – |
| COC(=O)c1ccccc1OC [M2MOB, Methyl 2-methoxybenzoate] | – | 73.6 ^ab % | 66.3 ^ab % | 59.6% | 35.2 ^ab % | 32.5 ^cd % | 13.9 ^b % | 3.4 ^cd | 8.4 ^bc | 13.9 ^bc | 48.2 ^bc % | 43.0 ^abc % | 19.1 ^bc % | 8.7 ^abcd | 11.3 ^bc | 11.6 ^abc | 5.2 ^de % | 5.9 ^c % | 36.8% | – | % Viable Day 3 rinsed ([1]; 0.1%, after Day 2 water rinse): did not cause significant reductions; decrease in % active J2 compared with the Tween control (M. incognita eggs): 86%; nonviable (killed) J2 [2]: killed more than half |
| COC(=O)c1ccccc1[N+](=O)[O-] [M2NB, Methyl 2-nitrobenzoate] | 51% | 54.2 ^c % | 34.1 ^de % | 30% | 29.5 ^b % | 15.2 ^d % | 18.7 ^b % | 5.0 ^bcd | 12.1 ^b | 19.5 ^b | 35.8 ^c % | 28.6 ^bcd % | 25.3 ^bc % | 9.1 ^abc | 10.2 ^bc | 10.0 ^bc | 0 ^f % | 0 ^d % | 0% | 100% | decrease in total hatch compared with the Tween control (M. incognita eggs): about 58%; % active J2 suppression compared with the Tween control (Heterodera glycines eggs; Day 7): 53% |
| COC(=O)c1cccc(OC)c1 [M3MOB, Methyl 3-methoxybenzoate] | – | 12.2 ^d % | 10.4 ^g % | 11.1% | 0 ^c % | 0 ^e % | 0 ^c % | 2.0 ^cd | 2.7 ^de | 2.8 ^de | 0 ^e % | 0 ^f % | 6.9 ^bc % | 6.3 ^bcd | 6.4 ^bcd | 6.0 ^cd | 0 ^f % | 0 ^d % | 0% | 100% | pest or weed control at 0.1 % (Heterodera glycines eggs; Day 7): 64% |
| CC(C)COC(=O)c1ccccc1 [iBB, iso-Butyl benzoate] | 43% | 55.6 ^c % | 45.2 ^cd % | 34.5% | 61.2 ^ab % | 51.6 ^bc % | 38.0 ^b % | 6.4 ^abc | 7.2 ^bcd | 8.2 ^bcd | 22.4 ^cd % | 18.4 ^cde % | 13.6 ^bc % | 6.7 ^bcd | 7.5 ^bcd | 7.3 ^bcd | 54.8 ^ab % | 41.1 ^b % | 42.9% | 52% | decrease in % active J2 compared with the Tween control (M. incognita eggs): 60% |
| CCCCOC(=O)c1ccccc1 [nBB, n-Butyl benzoate] | – | 52.7 ^c % | 24.2 ^ef % | 26.3% | 17.1 ^b % | 0 ^e % | 0% and 0 ^c % | 3.3 ^cd | 4.1 ^cde | 4.6 ^de | 3.6 ^d % | 9.2 ^de % | 8.8 ^bc % | 5.2 ^cd | 5.6 ^cd | 5.4 ^cd | 14.8 ^cd % | 5.8 ^c % | 2.9% | – | pest or weed control at 0.1 % (Heterodera glycines eggs; Day 7): 64 to 80%; nonviable (killed) J2 [2]: killed most of the J2 |

From US20220183287A1, “METHODS FOR KILLING PESTS” (The United States of America, as represented by the …, priority 2020, published 2022)
